Laboratory results taken from patent US20050112179A1, “Method to reduce stool odor of companion animals” (priority 2003, published 2005).
Where two headings read alike, the source gives them in different places.

Key:
flatulence = settings: dogs, literature report; cited from earlier work
stool odor compounds [1] = settings: one month; for Alcohols / Aldehydes / Carboxylic acids / Esters / Heterocycles / Indoles / Ketones / Phenols / Thiols/Sulfides: cat stool, area under chromatogram peak
Protocol: (§1) An experiment was conducted to characterize the effects of zinc acetate on stool odor compounds in dogs. To a control food, which was a dry food composed of kibbles containing a base level of 150 ppm zinc in the form of zinc acetate, various amounts of zinc in the form of zinc acetate were added as a coating on the kibbles. This was done by hand coating (sprinkling) fine zinc acetate powder on the kibble in a rotating drum in a two-step coating process after all other topical ingredients had been added by in-line enrobing. Ten dogs were fed control food with no added zinc, ten dogs were fed control food with 400 ppm zinc added, ten dogs were fed control food with 600 ppm zinc added, and ten dogs were fed control food with 900 ppm zinc added. The dogs were fed one of these diets for three weeks. At the end of three weeks, stool samples were collected and analyzed by putting a standard amount of stool in a glass container and incubating a solid phase microextraction fiber in the headspace. Volatiles bound to the fiber were eluted onto a gas chromatograph for analysis. The compounds were identified using a […].
An experiment was conducted to characterize the effects of zinc acetate on stool odor compounds in cats. To a control food, which was a dry food composed of kibbles containing a base level of 160 ppm zinc in the form of zinc acetate, various amounts of zinc were added in the form of zinc acetate as in Example 1. Eight cats were fed control food with no added zinc, eight cats were fed control food with 860 ppm zinc acetate added, seven cats were fed control food with 1200 ppm zinc acetate added, and seven cats were fed control food with 1800 ppm zinc acetate added. The cats were fed one of these diets for one month. At the end of the month, stool samples were collected and analyzed as described in Example 1.
(§2) The numbers indicate relative differences as measured by the area under the peak in a chromatogram.

stool odor compounds [2] = settings: 3 weeks; for Alcohols / Aldehydes / Carboxylic acids / Esters / Heterocycles / Indoles / Ketones / Phenols / Thiols/Sulfides: dog stool, area under chromatogram peak
Protocol: as §1, §2

[3] = 860 ppm added zinc on control food
[4] = 1200 ppm added zinc on control food
[5] = 1800 ppm added zinc on control food
[6] = 400 ppm added zinc on control food
[7] = 600 ppm added zinc on control food
[8] = 900 ppm added zinc on control food

CC(=O)[O-].CC(=O)[O-].[Zn+2] [zinc acetate]
number of flatulent episodes (flatulence): decreased
odor of gas (flatulence): decreased
total gas production (flatulence): decreased
Alcohols (stool odor compounds [1]; [3]): 13.2 ± 27 ×10^4
Aldehydes (stool odor compounds [1]; [3]): 5.6 ± 3.6 ×10^4
Carboxylic acids (stool odor compounds [1]; [3]): 317 ± 160 ×10^4
Esters (stool odor compounds [1]; [3]): 78.4 ± 22.9 ×10^4
Heterocycles (stool odor compounds [1]; [3]): 0.62 ± 0.13 ×10^4
Indoles (stool odor compounds [1]; [3]): 0.39 ± 0.3 ×10^4
Ketones (stool odor compounds [1]; [3]): 25.6 ± 8.14 ×10^4
Phenols (stool odor compounds [1]; [3]): 10.3 ± 4.3 ×10^4
Thiols/Sulfides (stool odor compounds [1]; [3]): 6.2 ± 2.3 ×10^4
Alcohols (stool odor compounds [1]; [4]): 6.87 ± 10.8 ×10^4
Aldehydes (stool odor compounds [1]; [4]): 3.6 ± 1.7 ×10^4
Carboxylic acids (stool odor compounds [1]; [4]): 225 ± 78.1 ×10^4
Esters (stool odor compounds [1]; [4]): 76.9 ± 47.5 ×10^4
Heterocycles (stool odor compounds [1]; [4]): 0.62 ± 0.22 ×10^4
Indoles (stool odor compounds [1]; [4]): 0.88 ± 0.62 ×10^4
Ketones (stool odor compounds [1]; [4]): 60.7 ± 38.1 ×10^4
Phenols (stool odor compounds [1]; [4]): 12.6 ± 4.7 ×10^4
Thiols/Sulfides (stool odor compounds [1]; [4]): 7.7 ± 3.4 ×10^4
Alcohols (stool odor compounds [1]; [5]): 15.1 ± 23.3 ×10^4
Aldehydes (stool odor compounds [1]; [5]): 1.9 ± 1.6 ×10^4
Carboxylic acids (stool odor compounds [1]; [5]): 146 ± 144 ×10^4
Esters (stool odor compounds [1]; [5]): 28.7 ± 1.8 ×10^4
Heterocycles (stool odor compounds [1]; [5]): 0.46 ± 0.17 ×10^4
Indoles (stool odor compounds [1]; [5]): 2.3 ± 1.5 ×10^4
Ketones (stool odor compounds [1]; [5]): 42.2 ± 26.2 ×10^4
Phenols (stool odor compounds [1]; [5]): 7.2 ± 2.7 ×10^4
Thiols/Sulfides (stool odor compounds [1]; [5]): 6.8 ± 3.9 ×10^4
Effect of addition of zinc to the food on stool odor compound levels (in words) (stool odor compounds [1]; cats, 860-1800 ppm added zinc vs control food): decreased stool levels of heterocycles, indoles, aldehydes and phenols
Alcohols (stool odor compounds [2]; [6]): 17.3 ± 12.5 ×10^5
Aldehydes (stool odor compounds [2]; [6]): 0.45 ± 0.3 ×10^3
Carboxylic acids (stool odor compounds [2]; [6]): 3.79 ± 3.55 ×10^4
Esters (stool odor compounds [2]; [6]): 34.3 ± 34.0 ×10^5
Heterocycles (stool odor compounds [2]; [6]): 0.94 ± 0.37 ×10^4
Indoles (stool odor compounds [2]; [6]): 2.64 ± 2.19 ×10^4
Ketones (stool odor compounds [2]; [6]): 179 ± 0.89 ×10^6
Phenols (stool odor compounds [2]; [6]): 9.62 ± 6.0 ×10^4
Thiols/Sulfides (stool odor compounds [2]; [6]): 8.69 ± 6.16 ×10^4
Alcohols (stool odor compounds [2]; [7]): 12.3 ± 0.9 ×10^5
Aldehydes (stool odor compounds [2]; [7]): 0.56 ± 0.51 ×10^3
Carboxylic acids (stool odor compounds [2]; [7]): 22.7 ± 32.2 ×10^4
Esters (stool odor compounds [2]; [7]): 34.1 ± 34.4 ×10^5
Heterocycles (stool odor compounds [2]; [7]): 1.19 ± 0.54 ×10^4
Indoles (stool odor compounds [2]; [7]): 2.0 ± 0.86 ×10^4
Ketones (stool odor compounds [2]; [7]): 201 ± 66.5 ×10^6
Phenols (stool odor compounds [2]; [7]): 9.17 ± 5.64 ×10^4
Thiols/Sulfides (stool odor compounds [2]; [7]): 5.14 ± 2.4 ×10^4
Alcohols (stool odor compounds [2]; [8]): 23.4 ± 14.3 ×10^5
Aldehydes (stool odor compounds [2]; [8]): 1.09 ± 1.29 ×10^3
Carboxylic acids (stool odor compounds [2]; [8]): 27.2 ± 21.2 ×10^4
Esters (stool odor compounds [2]; [8]): 32.6 ± 0.9 ×10^5
Heterocycles (stool odor compounds [2]; [8]): 1.13 ± 0.49 ×10^4
Indoles (stool odor compounds [2]; [8]): 1.78 ± 2.45 ×10^4
Ketones (stool odor compounds [2]; [8]): 160 ± 63.1 ×10^6
Phenols (stool odor compounds [2]; [8]): 4.08 ± 3.58 ×10^4
Thiols/Sulfides (stool odor compounds [2]; [8]): 4.91 ± 1.3 ×10^4
Effect of addition of zinc to the food on stool odor compound levels (in words) (stool odor compounds [2]; dogs, 400-900 ppm added zinc vs control food): decreased levels of phenols, thiols and sulfides and indoles
